Data reported in patent EP0348490B1, “TREATMENT OF TYPE 2 DIABETES MELLITUS” (AMYLIN PHARMACEUTICALS, INC., priority 1988, dated 1995).
Where no end group is shown, it is not given here.

Experiments:
[1] = test system: soleus muscles strips; conditions: synthetic subpeptides; data not shown
[2] = test system: isolated islets of Langerhans; test: Glucose-stimulated insulin production by isolated islets of Langerhans; type: cell-based, rats
Procedure: The following experiments illustrate the fact that subpeptides of amylin can act to reduce the amount of insulin produced by isolated islets of Langerhans in response to a standard glucose challenge. […] All experiments were performed by known methods used in experimental practice. See, e.g., Lacey PE, and Kostianovsky M, Method for the isolation of intact islets of Langerhans from the rat pancreas. Diabetes 1967; 16:35-39.
Briefly, rats were killed, and islets of Langerhans were isolated from their pancreases. Experiments were performed either with freshly isolated islets or after overnight incubation of islets (23 h) in standard culture medium and conditions at 37°C. […]
Production of insulin is expressed as µU/islet/h. […] The integrity of the islet response was assessed by comparing the responses after stimulation of different aliquots of islets by two and ten mmol/L glucose, respectively, and the strength of the inhibitory response was judged against that induced by 1 µg/ml (650 nmol/L) somatostatin. […]
The results are shown in TABLE 5 below and all results are expressed as ± standard error of the mean (s.e.m.). The significance of differences between the means of groups is assessed by the t-test. […] In all other experimental conditions, the significance of the inhibitory effect is measured against the effect of 10 mmol/L glucose alone.

Row | Substance | activity in inhibiting glycogen synthesis (reducing incorporation of radioactive glucose into glycogen) [1] | inhibition of insulin secretion compared with that seen with amylin 27-37 ([2]; 10 mmol/L glucose, somatostatin 1 ug/mL (650 nmol/L), varying concentrations of CGRP 27-37) | trend of inhibition relative to that caused by amylin 27-37 ([2]; never reached significance)
1 | Amylin 8-37 (ATQRLANFLVHSSNNFGAILSSTNVGSNTY; Islet amyloid polypeptide; UniProt P10997 41-70, looked up, fragment) [[5]] | significant activity was present | – | –
2 | CGRP 27-37: subpeptide 27-37 of calcitonin gene related peptide, believed to affect the amylin receptor as an agonist (FVPTNVGSKAF; ends and bridges not checked; UniProt P06881 109-119, looked up, fragment) | – | no significant difference | slightly greater
